From patent US12497396B2, “Nitrogen-containing heterocyclic derivatives, method therefor and application therefor as inhibitors of KRAS G12C for the treatment of cancers” (SHANGHAI HANSOH BIOMEDICAL CO., LTD., priority 2019, dated 2025)

Experiments:
[1] = Plasma protein binding rate, rat plasma; format: in vitro ADME; conditions: 37° C.
Experimental: (§1) The embodiment compound was prepared into a 1 mM solution A with DMSO.
(§2) Solution A was added to the plasma solution and prepared into a 5 μM solution B.
(§3) • 1) 200 μL of solution B was added into the membrane. • 2) 350 μL of PBS was added to the outside of the membrane. • 3) Incubating in a 37° C. water bath for 6 hours. • 4) The samples were processed for dilution and detected by mass spectrometry.
(§4) • Instrument: Shimadzu LC-20 AD; • Chromatographic column: phenomenex Gemiu® C18 (50*4.6 mm, 5 μM particle size); • Mobile phase: A: Acetonitrile, B: 0.1% formic acid solution 0-0.5 min: 5% A→90% A, 2.0-2.1 min: 90% A→5% A; flow rate: 0.8 mL/min; running time: 5.0 min; injection volume: 5 μL.
(§5) • Instrument: API4000 Liquid Chromatography-Mass Spectrometry, AB, USA; • the ion source was electrospray ionization source (ESI); • the temperature of dry gas (N2) was 500° C.; • electrospray voltage was 5500V; • the detection method was positive ion detection; • the scanning mode was selective response monitoring (MRM); the scanning time was 0.1 s.

[2] = Plasma protein binding rate, dog plasma; format: in vitro ADME; conditions: 37° C.
Experimental: as §1, §2, §3, §4, §5

[3] = target: T1, CYP2D6 (Homo sapiens, UniProt P10635); test: CYP enzyme single point inhibition, human liver microsomes, 2D6; format: in vitro ADME; conditions: single point method
T1 construct: from tissue; host or cells: human liver microsomes
T1 sequence (P10635 whole entry): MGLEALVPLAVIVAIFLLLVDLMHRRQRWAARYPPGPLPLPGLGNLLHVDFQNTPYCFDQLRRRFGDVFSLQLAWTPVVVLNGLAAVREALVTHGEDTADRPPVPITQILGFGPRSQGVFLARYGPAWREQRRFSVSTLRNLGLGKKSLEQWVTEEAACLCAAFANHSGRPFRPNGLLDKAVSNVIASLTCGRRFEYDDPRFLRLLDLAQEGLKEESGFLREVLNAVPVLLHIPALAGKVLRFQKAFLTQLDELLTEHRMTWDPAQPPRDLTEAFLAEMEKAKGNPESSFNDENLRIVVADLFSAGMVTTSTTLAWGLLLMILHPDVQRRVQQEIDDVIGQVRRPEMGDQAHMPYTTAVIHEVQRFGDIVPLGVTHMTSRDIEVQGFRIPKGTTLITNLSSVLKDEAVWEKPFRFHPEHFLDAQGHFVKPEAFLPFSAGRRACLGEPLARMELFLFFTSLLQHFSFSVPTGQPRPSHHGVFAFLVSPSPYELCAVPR
Experimental: Using human liver microsomal incubation system, the inhibition of CYP450 enzyme subtypes by compounds was rapidly predicted by single point method.
2.5 mM NADPH: 100 mM phosphate buffer was added to 4.165 mg of NADPH (reduced nicotinamide adenine dinucleotide phosphate) to 2 mL. 0.25 mg/mL microsome: 4 mL of 100 mM phosphate buffer was added to 50 μL of 20 mg/mL microsome and mixed well.
The embodiment compound to be tested was weighed and diluted to 10 mM with DMSO and then diluted to 100 μM with 100 mM phosphate buffer.
• 1. In a 96-well plate, 40 μL of liver microsomes, 10 μL of substrate, 10 μL of compound to be tested were pre-incubated for 3 min. • 2. 40 μL of NADPH was added. • 3. 300 μL of acetonitrile termination solution containing internal standard was added at 20 min. • 4. Centrifugal injection.

[4] = test system: Mia PaCa-2 cells (KRAS G12C mutant cell line); test: Inhibition of Mia PaCa-2 cell proliferation (CellTiter-Glo, 72 h); format: cell-based, human; conditions: Homo sapiens
How it was run: (§6)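 Cells were seeded overnight at 37 °C, 5% CO2, then exposed to serially diluted compound (DMSO/medium) alongside a solvent control for 72 h. Viability was read by CellTiter-Glo luminescence, and IC50 was derived by nonlinear regression of inhibition rate against concentration.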

[5] = test system: NCI-H358 cells (KRAS G12C mutant cell line); test: Inhibition of NCI-H358 cell proliferation (CellTiter-Glo, 72 h); format: cell-based, human; conditions: Homo sapiens
How it was run: as §6

[6] = Plasma stability, rat plasma; format: in vitro ADME; conditions: for Residual rate (%) 0 min / Residual rate (%) 15 min / Residual rate (%) 30 min / Residual rate (%) 60 min / Residual rate (%) 120 min: rat plasma, 37° C.; for half-life at 0.5 μM: rat, plasma
Experimental: Animal or human whole blood was collected, then the blood was put into a test tube containing anticoagulant, centrifuged at 3500 rpm for 10 min, and the upper layer of pale yellow plasma was collected. • 2), 10 μM of tested compound (m/M/V=C)
The compound was weighed, the stock solution was prepared with DMSO and the working solution was prepared with 100 mM phosphate buffer. • 3), 10 μM of positive control (1) Propantheline (Propantheline Mr=449.4 Da)
• 1) 285 μL of plasma and 15 μL of 10 μM compound (tested compound) were added in turn in a 96-well plate, and incubated at 37° C. • 2) 40 μL was taken out at 0, 15, 30, 60, 90, 120 min, respectively, and 160 μL of acetonitrile termination solution containing internal standard was added. • 3) After centrifugation (3500 rpm, 10 min), 50 μL of supernatant was taken out, and then diluted with 50 μL DDH2O and injected to LC-MS/MS.
• Instrument: Shimadzu LC-20 AD • Chromatographic column: phenomenex Gemiu® C18 (50*4.6 mm, 5 μM particle size); • mobile phase: A: acetonitrile, B: 0.1% formic acid solution […], 2.0-2.1 min: 90% A→5% A; flow rate: 0.8 mL/min; running time: 5.0 min; injection volume: 5 μL.
as §5, with “(MRM). •” for “(MRM);”

Compound `C=CC(=O)N1C[C@H](C)N(c2nc(=O)n(-c3c(SC)ccnc3C(C)C)c3nc(-c4c(O)cccc4F)c(F)cc23)C[C@H]1C` (single isomer, unassigned) [Embodiment 114-1] has a fraction unbound at 6 h, 5 μM [1] of 0.095, a fraction unbound at 6 h, 5 μM [2] of 0.174 and an IC50 [3] greater than 100 nM. For the same compound, the IC50 [4] was 29 nM and the IC50 [5] was 35 nM.

With `C=CC(=O)N1C[C@H](C)N(c2nc(=O)n(-c3c(SC)ccnc3C(C)C)c3nc(-c4c(N)ccc(Cl)c4F)c(Cl)cc23)C[C@H]1C` (single isomer, unassigned) [Embodiment 165-1] the fraction unbound at 6 h, 5 μM [1] was 0.021, the “Residual rate (%) 0 min” value [6] was 100.00% and the “Residual rate (%) 15 min” value [6] was 95.57%. The “Residual rate (%) 30 min” value [6] was 96.73%, the “Residual rate (%) 60 min” value [6] was 93.97% and the “Residual rate (%) 120 min” value [6] was 91.93%. It also gave a half-life at 0.5 μM [6] of 19.3 h, a fraction unbound at 6 h, 5 μM [2] of 0.013 and an IC50 [3] of 21.2 nM. The IC50 [4] was 3.3 nM and the IC50 [5] was 6.6 nM.

In the case of `C=CC(=O)N1C[C@H](C)N(c2nc(=O)n(-c3c(SC)ccnc3C(C)C)c3nc(-c4c(O)cccc4F)c(Cl)cc23)C[C@H]1C` (single isomer, unassigned) [Embodiment 166-1], the fraction unbound at 6 h, 5 μM [1] is reported as 0.046, the “Residual rate (%) 0 min” value [6] is reported as 100.00% and the “Residual rate (%) 15 min” value [6] is reported as 93.20%. The “Residual rate (%) 30 min” value [6] was 98.32%, the “Residual rate (%) 60 min” value [6] was 99.08% and the “Residual rate (%) 120 min” value [6] was 96.46%. It also gave a half-life at 0.5 μM [6] of 108 h, a fraction unbound at 6 h, 5 μM [2] of 0.075 and an IC50 [4] of 11 nM. It also gave an IC50 [5] of 17 nM.
